This assay concerns TGFβ signal. Briefly: TGFβ signal inhibitory activity, (SBE)4-Luc reporter in A549 cells (Test Examples 1A and 1B). Type of assay: cell-based, human. The following applies: Homo sapiens, A549, TGFβ-1 2 ng/ml, 4 hr, Table 1A, read-out: TGFβ inhibition rate, %; for inhibition at 3 µM: test compound 3 µM; for inhibition at 10 µM: test compound 10 µM. In a few lines: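 Compounds at 3 µM and 10 µM (some 1 µM) were added with 2 ng/ml TGFβ-1 to A549 cells stably expressing an SBE-driven luciferase, then cultured 4 hr. Chemiluminescent luciferase signal gave % inhibition versus TGFβ-alone and no-TGFβ controls.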

Each structure is given as a SMILES string.

On to `COc1cc2nccc(Oc3cc4cccnc4nc3-c3ccccc3)c2cc1OCCO` [Compound 125, 2-[7-Methoxy-4-(2-phenyl-[1,8]naphthyridin-3-yloxy)-quinolin-6-yloxy]-ethanol], for which the inhibition at 3 µM amounted to 99% and the inhibition at 10 µM is 100%.

As to `Cc1cc(Oc2ccnc3cc(C(N)=O)ccc23)c(-c2ccccn2)nc1C` [Compound 126, 4-(5,6-Dimethyl-[2,2']bipyridinyl-3-yloxy)-quinoline-7-carboxylic acid amide], the inhibition at 3 µM turned out to be 93% and the inhibition at 10 µM turned out to be 100%.

Consider `COc1ccc2nccc(Oc3cc4cccnc4nc3-c3ccccc3)c2n1` [Compound 128, 2-Methoxy-8-(2-phenyl-[1,8]naphthyridin-3-yloxy)-[1,5]naphthyridine], for which the inhibition at 3 µM worked out at 93% and the inhibition at 10 µM worked out at 100%.

With `Cc1cc(Oc2ccnc3ccc(Cl)c(Cl)c23)c(-c2ccccn2)nc1C` [Compound 130, 3-(5,6-Dichloro-quinolin-4-yloxy)-5,6-dimethyl-[2,2']bipyridine], the inhibition at 3 µM came to 100% and the inhibition at 10 µM came to 100%.

In the case of `Cc1cc(Oc2ccnc3cc(Cl)c(Cl)cc23)c(-c2ccccn2)nc1C` [Compound 131, 3-(6,7-Dichloro-quinolin-4-yloxy)-5,6-dimethyl-[2,2']bipyridine], the inhibition at 3 µM is 99% and the inhibition at 10 µM was determined as 100%.

Turning to `COc1cc2nccc(Oc3cc4cccnc4nc3-c3ccccc3)c2cc1Br` [Compound 132, 3-(6-Bromo-7-methoxy-quinolin-4-yloxy)-2-phenyl-[1,8]naphthyridine], the inhibition at 3 µM worked out at 98% and the inhibition at 10 µM was 100%.

As to `COc1cc2nccc(Oc3cc(C)c(C)nc3-c3ccccn3)c2cc1Br` [Compound 133, 3-(6-Bromo-7-methoxy-quinolin-4-yloxy)-5,6-dimethyl-[2,2']bip yridine], the inhibition at 3 µM worked out at 99% and the inhibition at 10 µM was 100%.

As to `Cc1cc(Oc2ccnc3ccc(OCc4ccccc4)cc23)c(-c2ccccn2)nc1C` [Compound 136, 3-(6-Benzyloxy-quinolin-4-yloxy)-5,6-dimethyl-[2,2']bipyridine], the inhibition at 3 µM is 93% and the inhibition at 10 µM was found to be 100%.

As to `Cc1cc(Oc2ccnc3cc(OCc4ccccc4)ccc23)c(-c2ccccn2)nc1C` [Compound 137, 3-(7-Benzyloxy-quinolin-4-yloxy)-5,6-dimethyl-[2,2']bipyridine], the inhibition at 3 µM turned out to be 88% and the inhibition at 10 µM came to 100%.

With `COc1cc2nccc(Oc3cc(C)c(C)nc3-c3ccccn3)c2cc1OCc1ccccc1` [Compound 138, 3-(6-Benzyloxy-7-methoxy-quinolin-4-yloxy)-5,6-dimethyl-[2,2'] bipyridine], the inhibition at 3 µM came to 98% and the inhibition at 10 µM is 100%.

Consider `Cc1cc(Oc2ccnc3ccc(O)cc23)c(-c2ccccn2)nc1C` [Compound 139, 4-(5,6-Dimethyl-[2,2']bipyridinyl-3-yloxy)-quinolin-6-ol], for which the inhibition at 3 µM was determined as 100% and the inhibition at 10 µM is 100%.

With `Cc1cc(Oc2ccnc3cc(O)ccc23)c(-c2ccccn2)nc1C` [Compound 140, 4-(5,6-Dimethyl-[2,2']bipyridinyl-3-yloxy)-quinolin-7-ol], the inhibition at 3 µM is 99% and the inhibition at 10 µM is 100%.

On to `COc1cc2nccc(Oc3cc(C)c(C)nc3-c3ccccn3)c2cc1O` [Compound 141, 4-(5,6-Dimethyl-[2,2']bipyridinyl-3-yloxy)-7-methoxy-quinolin-6-ol], for which the inhibition at 3 µM amounted to 100% and the inhibition at 10 µM is 100%.

On to `Cc1cc(Oc2ccnc3ccc(OCCO)cc23)c(-c2ccccn2)nc1C` [Compound 142, 2-[4-(5,6-Dimethyl-[2,2']bipyridinyl-3-yloxy)-quinolin-6-yloxy]-ethanol], for which the inhibition at 3 µM came to 98% and the inhibition at 10 µM amounted to 100%.

On to `Cc1cc(Oc2ccnc3cc(OCCO)ccc23)c(-c2ccccn2)nc1C` [Compound 143, 2-[4-(5,6-Dimethyl-[2,2']bipyridinyl-3-ylox)-quinolin-7-yloxy]-ethanol], for which the inhibition at 3 µM was 100% and the inhibition at 10 µM amounted to 100%.

On to `COc1cc2nccc(Oc3cc(C)c(C)nc3-c3ccccn3)c2cc1OCCO` [Compound 144, 2-[4-(5,6-Dimethyl-[2,2']bipyridinyl-3-yloxy)-7-methoxy-quinolin-6-yloxy]-ethanol], for which the inhibition at 3 µM was 93% and the inhibition at 10 µM was 100%.

For `COc1cc2c(Oc3cc(C)c(C)nc3-c3ccccn3)ccnc2cc1C(N)=O` [Compound 145, 4-(5,6-Dimethyl-[2,2']bipyridinyl-3-yloxy)-6-methgxy-quinoline-7-carboxylic acid amide], the inhibition at 3 µM was determined as 78% and the inhibition at 10 µM is 100%.

Regarding `Cc1cc(Oc2ccnc3cc(Cl)c(C(N)=O)cc23)c(-c2ccccn2)nc1C` [Compound 146, 7-Chloro-4-(5,6-dimethyl-[2,2']bipyridinyl-3-yloxy)-quinoline-6-carboxylic acid amide], the inhibition at 3 µM turned out to be 54% and the inhibition at 10 µM stood at 95%.

Take `COc1cc2c(Oc3cc4cccnc4nc3-c3ccccc3)ccnc2cc1C(N)=O` [Compound 147, 6-Methoxy-4-(2-phenyl-[1,8]naphthyridin-3-yloxy)-quinoline-7-carboxylic acid amide]: the inhibition at 3 µM was found to be 34% and the inhibition at 10 µM was found to be 77%.

Turning to `COC(=O)c1cc2c(Oc3cc4cccnc4nc3-c3ccccc3)ccnc2cc1Cl` [Compound 148, Methyl 7-chloro-4-(2-phenyl-[1,8]naphthyridin-3-yloxy)-quinoline-6-carboxylate], the inhibition at 3 µM turned out to be 58% and the inhibition at 10 µM came out at 98%.

As for `COc1cc2nccc(Oc3cc(C)c(C)nc3-c3ccccn3)c2cc1NCCO` [Compound 154, 2-[4-(5,6-Dimethyl-[2,2']bipyridinyl-3-yloxy)-7-methoxy-quinolin-6-ylamino]-ethanol], the inhibition at 3 µM is 99% and the inhibition at 10 µM was determined as 100%.

As to `COc1cc2nccc(Oc3cc(C)c(C)nc3-c3ccccn3)c2cc1-c1cccnc1` [Compound 155, 3-(7-Methoxy-6-pyridin-3-yl-quinotin-4-yloxy)-5,6-dimethyl-[2,2']bipyridine], the inhibition at 3 µM came out at 99% and the inhibition at 10 µM turned out to be 100%.

As to `Cc1cc(Oc2ccnc3ccc(Cl)cc23)c(-c2ccccn2)nc1C` [Compound 156, 3-(6-Chloro-quinolin-4-yloxy)-5,6-dimethyl-[2,2']bipyridine], the inhibition at 3 µM stood at 100% and the inhibition at 10 µM worked out at 100%.

For the compound `Cc1ccc2nccc(Oc3cc(C)c(C)nc3-c3ccccn3)c2c1` [Compound 157, 5,6-Dimethyl-3-(6-methyl-quinolin-4-yloxy)-[2,2']bipyridine], the inhibition at 3 µM was 99% and the inhibition at 10 µM was 100%.

On to `COc1cc2nccc(Oc3cc(C)c(C)nc3-c3ncccn3)c2cc1F` [Compound 158, 4-(5,6-Dimethyl-2-pyrimidin-2-yl-pyridin-3-yloxy)-6-fluoro-7-methoxy-quinoline], for which the inhibition at 3 µM was found to be 98% and the inhibition at 10 µM is 100%.

In the case of `COc1cc2nccc(Oc3cc4cccnc4nc3C)c2cc1F` [Compound 160, 3-(6-Fluoro-7-methoxy-quinolin-4-yloxy)-2-methyl-[1,8]naphthyridine], the inhibition at 3 µM stood at 56% and the inhibition at 10 µM came out at 87%.

As to `CCc1nc2ncccc2cc1Oc1ccnc2cc(OC)c(F)cc12` [Compound 161, 2-Ethyl-3-(6-fluoro-7-methoxy-qulnolin-4-yloxy)-[1,8]naphthyridine], the inhibition at 3 µM stood at 68% and the inhibition at 10 µM came out at 95%.

With `CCc1ccc(Oc2ccnc3cc(OC)c(F)cc23)c(-c2ccccn2)n1` [Compound 162, 6-Ethyl-3-(6-fluoro-7-methoxy-quinolin-4-yloxy)-[2,2']bipyridine], the inhibition at 3 µM was determined as 100% and the inhibition at 10 µM is 100%.

For the compound `Cc1cc(Oc2ccnc3ccc(-c4ccsc4)cc23)c(-c2ccccn2)nc1C` [Compound 163, 5,6-Dimethyl-3-(6-thiophen-3-yl-quinolin-4-yloxy)-[2,2']bipyridine], the inhibition at 3 µM was 92% and the inhibition at 10 µM worked out at 100%.

On to `Cc1cc(Oc2ccnc3ccc(-c4csc5ccccc45)cc23)c(-c2ccccn2)nc1C` [Compound 164, 3-(6-Benzo[b]thiophen-3-yl-quinolin-4-yloxy)-5,6-dimethyl-[2,2']bipyridine], for which the inhibition at 3 µM was determined as 75% and the inhibition at 10 µM turned out to be 100%.

`Cc1ccc(-c2ccc3nccc(Oc4cc(C)c(C)nc4-c4ccccn4)c3c2)s1` [Compound 165, 5,6-Dimethyl-3-[6-(5-methyl-thiophen-2-yl)-quinolin-4-yloxy]-[2,2']bipyridine]: the inhibition at 3 µM was determined as 90% and the inhibition at 10 µM came out at 100%.

Consider `Cc1cc(Oc2ccnc3ccc(-c4cc5ccccc5o4)cc23)c(-c2ccccn2)nc1C` [Compound 166, 3-(6-Benzofuran-2-yl-quinolin-4-yloxy)-5,6-dimethyl-[2,2']bipyridine], for which the inhibition at 3 µM was determined as 78% and the inhibition at 10 µM stood at 100%.

For the compound `Cc1cc(Oc2ccnc3ccc(-c4cccn4C(=O)OC(C)(C)C)cc23)c(-c2ccccn2)nc1C` [Compound 167, 2-[4-(5,6-Dimethyl-[2,2']bipyridinyl-3-yloxy)-quinolin-6-yl]-pyrrole-1-carboxylate tert-butyl ester], the inhibition at 3 µM came out at 35% and the inhibition at 10 µM is 85%.

In the case of `Cc1cc(Oc2ccnc3ccc(-c4ccc[nH]4)cc23)c(-c2ccccn2)nc1C` [Compound 168, 5,6-Dimethyl-3-[6-(1H-pyrrol-2-yl)-quinolin-4-yloxy]-[2,2']bipyridine], the inhibition at 3 µM turned out to be 92% and the inhibition at 10 µM is 100%.

For orientation: inhibition means the drop in the measured response relative to a control, in per cent.

The values above are taken from patent EP1724268A1, “COMPOUND HAVING TGF-BETA INHIBITORY ACTIVITY AND PHARMACEUTICAL COMPOSITION CONTAINING SAME” (KIRIN BEER KABUSHIKI KAISHA, priority 2004, dated 2005).
